{"source": "paper PMC12535076", "about": "“Neurotherapeutic effects of Vutiglabridin as a Paraoxonase-2 modulator in preclinical models of Parkinson’s disease” (Molecular Neurodegeneration, 2025)", "key": {"[1]": {"molecular_target": "T1, MAO-B (Homo sapiens, UniProt P27338)", "T1 sequence (P27338 1-520)": "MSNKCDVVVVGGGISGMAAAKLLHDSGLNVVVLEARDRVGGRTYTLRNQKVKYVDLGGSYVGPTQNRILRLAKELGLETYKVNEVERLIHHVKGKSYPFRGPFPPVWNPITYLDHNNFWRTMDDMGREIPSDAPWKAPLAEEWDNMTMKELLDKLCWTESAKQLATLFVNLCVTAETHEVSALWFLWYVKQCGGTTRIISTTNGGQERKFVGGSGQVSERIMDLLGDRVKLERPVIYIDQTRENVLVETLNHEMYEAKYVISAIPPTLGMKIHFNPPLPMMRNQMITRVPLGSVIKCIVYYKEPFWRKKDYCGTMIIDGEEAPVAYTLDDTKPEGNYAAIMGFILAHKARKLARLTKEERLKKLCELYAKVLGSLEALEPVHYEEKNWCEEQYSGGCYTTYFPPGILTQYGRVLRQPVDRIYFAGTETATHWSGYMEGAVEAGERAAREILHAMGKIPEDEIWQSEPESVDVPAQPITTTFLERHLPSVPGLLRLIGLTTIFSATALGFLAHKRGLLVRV", "experiment": "ROS Glo based MAO-B enzyme activity assay", "type": "biochemical", "details": "read-out: IC50, MAO-B assay, ROS-Glo method", "method": "An enzyme solution was prepared by diluting 10 µL of a 2.5 mg/mL MAO-A or MAO-B stock in 10 mL of 50 mM sodium phosphate buffer (pH 7.4). A substrate solution was prepared by diluting 200 µL of a 100 mM benzylamine (or tyramine) stock in 10 mL phosphate buffer to achieve a final concentration of 1 mM. For each 96-well plate experiment, 12.5 µL of a 1× H2O2 probe solution was added to 1 mL of the probe dilution buffer from the ROS Glo™ kit. Separately, 40 µL of cysteine and enhancer were diluted into 4 mL of Luciferin solution. In each well, 49 µL of the enzyme solution was dispensed, followed by 1 µL of the test compound, and incubated for 30 min. […] Next, 10 µL of the H2O2 probe solution was added and incubated for 15 min. […] Luminescence was subsequently recorded using a microplate luminescence reader (SpectraMax i3, Molecular Devices)."}, "[2]": {"molecular_target": "T1, MAO-B", "experiment": "HRP/Amplex red based MAO-B enzyme activity assay", "type": "biochemical", "details": "read-out: IC50, MAO-B assay, HRP/AR method", "method": "(§1) MAO-A or MAO-B enzyme solutions were prepared by diluting 10 µL of a 2.5 mg/mL MAO-A or MAO-B stock into 10 mL of 50 mM sodium phosphate buffer (pH 7.4). A substrate assay mixture was then prepared by combining benzylamine (for MAO-B) or tyramine (for MAO-A) from a 100 mM stock (200 µL in 10 mL phosphate buffer, final concentration 1 mM) with 100 µL of a 20 mM AR reagent stock (final concentration 0.1 mM) and 100 µL of a 200 U/mL HRP stock (final concentration 1 U/mL) in 10 mL phosphate buffer. […] Next, 50 µL of the substrate assay mixture was added, and the reaction was carried out at 37 °C for 60 min. The production of resorufin was quantified by fluorescence measurement (excitation at 540 nm and emission at 580 nm)."}, "[3]": {"molecular_target": "T2, MAO-A (Homo sapiens, UniProt P21397)", "T2 sequence (P21397 1-527)": "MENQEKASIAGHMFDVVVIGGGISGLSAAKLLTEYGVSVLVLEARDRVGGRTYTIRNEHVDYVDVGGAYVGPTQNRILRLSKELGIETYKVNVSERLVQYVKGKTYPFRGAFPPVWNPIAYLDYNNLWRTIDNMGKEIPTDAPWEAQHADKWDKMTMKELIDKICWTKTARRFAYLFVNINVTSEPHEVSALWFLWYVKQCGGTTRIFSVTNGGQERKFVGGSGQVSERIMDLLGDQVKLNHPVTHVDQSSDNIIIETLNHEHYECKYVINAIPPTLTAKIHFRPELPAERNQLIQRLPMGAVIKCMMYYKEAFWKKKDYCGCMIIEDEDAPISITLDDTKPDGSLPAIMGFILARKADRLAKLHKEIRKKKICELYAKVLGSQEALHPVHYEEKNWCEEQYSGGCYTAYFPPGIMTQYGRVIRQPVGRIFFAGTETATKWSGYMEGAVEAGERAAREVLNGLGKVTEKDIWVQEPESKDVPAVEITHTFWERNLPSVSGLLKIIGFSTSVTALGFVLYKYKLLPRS", "experiment": "ROS Glo based MAO-A enzyme activity assay", "type": "biochemical", "details": "printed as 'separate MAO-B assay' within the MAO-A panel (b); read-out: IC50, ROS-Glo method, panel (b)", "method": "An enzyme solution was prepared by diluting 10 µL of a 2.5 mg/mL MAO-A or MAO-B stock in 10 mL of 50 mM sodium phosphate buffer (pH 7.4). A substrate solution was prepared by diluting 200 µL of a 100 mM benzylamine (or tyramine) stock in 10 mL phosphate buffer to achieve a final concentration of 1 mM. For each 96-well plate experiment, 12.5 µL of a 1× H2O2 probe solution was added to 1 mL of the probe dilution buffer from the ROS Glo™ kit. Separately, 40 µL of cysteine and enhancer were diluted into 4 mL of Luciferin solution. In each well, 49 µL of the enzyme solution was dispensed, followed by 1 µL of the test compound, and incubated for 30 min. Then, 49 µL of the substrate solution was added, and the reaction proceeded at 37 °C for 60 min. Next, 10 µL of the H2O2 probe solution was added and incubated for 15 min. Subsequently, 40 µL of a luciferin solution containing cysteine and an enhancer was added, followed by an additional 30-minute incubation at 37 °C. Luminescence was subsequently recorded using a microplate luminescence reader (SpectraMax i3, Molecular Devices)."}, "[4]": {"molecular_target": "T2, MAO-A", "experiment": "HRP/Amplex red based MAO-A enzyme activity assay", "type": "biochemical", "details": "read-out: IC50, MAO-A assay, HRP/AR method", "method": "as §1"}, "[5]": {"system": "MPTP-injected C57BL/6 mice", "experiment": "MPTP-injected sub-acute PD mouse model (pole test, rotarod, TH immunohistochemistry)", "type": "in vivo", "method": "Animals were allowed at least 1 week of acclimatization before being subjected to the study and were housed in a regulated environment with a 12-h/12-h light/dark cycle. Food and water were provided ad libitum. The animal experiment was carried out in accordance with the National Institutes of Health Guide for the Care and Use of Laboratory Animals (NIH Publications No. 80–23; revised 1996). All procedures for handling mice were carried out in accordance with “Principles of Laboratory Animal Care” and the Animal Care and Use guidelines of Kyung Hee University, Seoul, Korea (KHSASP-20-163).\nMPTP was dissolved in distilled water and injected intraperitoneally for five days from day 10 of the 21-day experiment period. Vuti or rasagiline was administered via oral gavage for 21 days. Vehicles for both Vuti and MPTP (distilled water) were administered to all mice. Mice were randomly divided for all studies. For the first set of studies shown in Fig. 3, each group consisted of 5 animals.\nTo determine forelimb and hindlimb motor coordination and balance, we performed the rotarod test as described previously. Also, the pole test was performed to measure bradykinesia. For the rotarod test, the animals were pre-trained on the rotating bar of a rotarod unit set (LE 8500, Letica, Spain) on days 18 and 19 before the test on day 20. During pre-training, three trials per day were performed (5 rpm rotation speed on the first day, 15 rpm rotation speed on the second day). Mice were kept on the rotating bar (7.3-cm diameter) for 5 min on each trial. On day 20, the time spent on the rotating bar at 20 rpm, which was defined as the latent period, was recorded. Performance was recorded as 300 s if the latent period exceeded 300 s. Mice had at least 5 min of rest between trials to reduce stress and fatigue. Each animal underwent three test trials, and the mean of the test results was subjected to statistical analysis. For the pole test, mice were held on the top of the pole (diameter 8 mm, height 55 cm, with a rough surface). The time to land down and place four fee on the floor was recorded as the time for locomotion activity (T-LA).\nOn day 21, mice were anesthetized with sodium pentobarbital (50 mg/kg intraperitoneally) and transcardially perfused with saline containing 0.5% sodium nitrate and heparin (10 U/mL) and then fixed with 4% PFA in 0.1 M phosphate-buffer (PB, pH 7.2). Dissected brains were post-fixed overnight in buffered 4% PFA at 4 °C and stored in a 30% sucrose solution until they sank. Brains were cryosectioned into 30 μm thick coronal sections in a Cryostat (Microsystems AG, Leica, Wetzlar, Germany) and stored until use at 4℃ in a cryoprotectant (25% ethylene glycol, 25% glycerol, 0.2 M PB, and water). All sections were collected in six separate series and processed for immunostaining.\nFree-floating brain sections were processed with the avidin-biotin peroxidase complex (ABC) complex (Vector Laboratories, Burlingame, CA, USA) method. Briefly, brain sections were incubated with primary rabbit anti-TH antibodies (1:1000; Pel-Freez Biologicals, Rogers, AR, USA) overnight at 4 °C, with biotinylated anti-rabbit IgG (1:400) for 1 h at room temperature, and then with the ABC solution (1:1:200) for 1 h at room temperature. The immunoperoxidase signals of TH was detected by incubating sections with 0.5 mg/ml 3,3′-diaminobenzidine (Sigma, St. Louis, MO, USA) in 0.1 M PB containing 0.003% H2O2. Stained brain sections were mounted on gelatin-coated slides and imaged under a bright-field microscope (Olympus Optical, Tokyo, Japan). TH-positivity in the ST was measured by the optical density of TH-positive fibers at x40 magnification using ImageJ software (National Institutes of Health, Bethesda, MD, USA). TH-positive cells in the SNpc in brain tissue Sect. (5 sections/series) were counted at x100 magnification as previously described. […]"}, "[6]": {"details": "MPTP mice, Vuti 1, 50, 100 mg/kg/day or rasagiline 0.1 mg/kg/day orally for 21 days"}}, "data": [{"smiles": "CC1(C)C=Cc2c(ccc3c2OC[C@@H](c2ccc(O)cc2O)C3)O1", "note": "[Glabridin]", "values": [{"measurement": "IC50", "setting": "[1]", "value": 15.4, "unit": "µM"}, {"measurement": "IC50", "setting": "[2]", "value": 7.29, "unit": "µM"}, {"measurement": "IC50", "setting": "[3]", "value": 12, "unit": "µM"}, {"measurement": "IC50", "setting": "[4]", "value": 26.8, "unit": "µM"}]}, {"smiles": "CN1CC=C(c2ccccc2)CC1", "note": "[MPTP, 1-methyl-4-phenyl-1,2,3,6-tetrahydropyridine, reference compound]", "values": [{"measurement": "latency time to reach the floor (T-LA) in the pole test", "setting": "[5]; MPTP 30 mg/kg/day i.p. for 5 days, no drug, vs 5.2 ± 0.9 s vehicle-only", "value": "9.6 ± 2.1", "unit": "s"}, {"measurement": "latency to fall in the rotarod test", "setting": "[5]; MPTP 30 mg/kg/day i.p. for 5 days, no drug, vs 196.4 ± 77.3 s vehicle-only", "value": "63.5 ± 34.5", "unit": "s"}]}, {"smiles": "C#CCN[C@@H]1CCc2ccccc21", "note": "[rasagiline, Rasagiline, reference compound]", "values": [{"measurement": "effect on T-LA in the pole test", "setting": "[5]; [6]", "value": "significantly normalized"}, {"measurement": "effect on latency to fall in the rotarod test", "setting": "[5]; [6]", "value": "significantly normalized"}]}]}
